Laboratory results taken from patent publication EP4813992A1, “POLYARYL DERIVATIVE AND USE THEREOF” (Hangzhou HealZen Therapeutics Co., Ltd., priority 2023, dated 2025).

Tests used:
HPK1 kinase [1] = molecular target: T1, HPK1 kinase (Homo sapiens, UniProt Q92918); assay: Activity of degrading HPK1 in Jurkat cells (Western blot, 24 h); type: cell-based; design: endogenous in cells; host or cells: Jurkat; details: HPK1 protein degradation, class symbols
Method: The adjusted samples are added to 5*loading buffer, boiled at 100°C for 10 minutes, and then the samples are loaded after the temperature is returned to room temperature. • 4) Detection of samples: Electrophoresis is performed using 10% SDS-PAGE with a sample loading volume of 8 µL/well. After the membrane transfer is completed, the samples are blocked with 5% BSA at room temperature for 1 h. After the residual blocking solution is washed away with TBST, HPK1 and GAPDH antibodies are added for incubation overnight at 4°C. Washing is performed 3 more times with TBST on a shaker, 10 minutes each time. After washing is completed, the secondary antibody is added for incubation at room temperature for 1 hour; then, washing is performed 3 more times with TBST on a shaker, 10 minutes each time; finally, ECL exposure solution is used to develop and image the bands to detect changes in HPK1 protein.

HPK1/GLK = assay: Selectivity of degrading HPK1/GLK in Jurkat cells (Western blot, 24 h); type: cell-based; details: HPK1/GLK Fold = DC50 (HPK1) / DC50 (GLK)
Method: • 1) Cell plating: Cells are resuscitated, Jurkat cell lines in good growth condition are selected, and cells in the logarithmic growth phase are collected and counted; cell suspensions are seeded into 12 or 24-well plates (20W/well) and incubated overnight at 37°C in a 5% CO2 incubator. • 2) Preparation of compounds to be tested: The compounds to be tested are serially diluted with DMSO according to the experimental requirements and added to the corresponding cell wells, to be incubated at 37°C in a 5% CO2 incubator for 24 h. • 3) Preparation of samples: After the reaction of the compound to be tested is completed, the cells are collected in 1.5 mL EP tubes, and centrifuged at 1500 rpm for 5 min; after the supernatant is discarded, the cells are washed once with PBS, and the BCA protein is quantified and the concentration is adjusted. The adjusted samples are added to 5*loading buffer, boiled at 100°C for 10 minutes, and then the samples are loaded after the temperature is returned to room temperature. • 4) Detection of samples: Electrophoresis is performed using 10% SDS-PAGE with a sample loading volume of 10 µL/well. After the membrane transfer is completed, the samples are blocked with 5% skim milk at room temperature for 1 h. After the residual blocking solution is washed away with TBST, HPK1 and GLK antibodies are added for incubation overnight at 4°C. Washing is performed 3 more times with TBST on a shaker, 5 minutes each time. After washing is completed, the secondary antibody is added for incubation at room temperature in a shaker for 1 hour; then, washing is performed 3 more times with TBST on a shaker, 5 minutes each time; finally, the membrane is soaked in TBST and then subjected to chemiluminescence development. • 5) Data Processing: After the PVDF membrane is developed, the data are exported and plotted using Imang J, and the gray values of the protein bands are analyzed using Image J software; the DC50 curve is fitted using Graphpad Prism 9 software to obtain the results of the selectivity of the compound in degrading HPK1/GLK: HPK1/GLK Fold = DC50 (HPK1) / DC50 (GLK) . Table 3 Selectivity of the compounds of the invention in degrading HPK1/GLK

HPK1 kinase [2] = molecular target: T1, HPK1 kinase; assay: Lantha screen assay, inhibitory effect on HPK1 kinase; type: biochemical; details: initial compound concentration 1 µM
Outline: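 Kinase pre-incubated with compound for 10 min at room temperature in 50 mM HEPES pH 7.5, 10 mM MgCl2, 4 mM DTT, 0.01% Tween-20, 0.01% BSA. Fluorescein-PKC substrate plus ATP then added for 90 min, stopped with antibody/EDTA for 60 min. Top concentration 1 µM; IC50 from four-parameter fit of inhibition vs log concentration.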

T1 sequence (Q92918 whole entry): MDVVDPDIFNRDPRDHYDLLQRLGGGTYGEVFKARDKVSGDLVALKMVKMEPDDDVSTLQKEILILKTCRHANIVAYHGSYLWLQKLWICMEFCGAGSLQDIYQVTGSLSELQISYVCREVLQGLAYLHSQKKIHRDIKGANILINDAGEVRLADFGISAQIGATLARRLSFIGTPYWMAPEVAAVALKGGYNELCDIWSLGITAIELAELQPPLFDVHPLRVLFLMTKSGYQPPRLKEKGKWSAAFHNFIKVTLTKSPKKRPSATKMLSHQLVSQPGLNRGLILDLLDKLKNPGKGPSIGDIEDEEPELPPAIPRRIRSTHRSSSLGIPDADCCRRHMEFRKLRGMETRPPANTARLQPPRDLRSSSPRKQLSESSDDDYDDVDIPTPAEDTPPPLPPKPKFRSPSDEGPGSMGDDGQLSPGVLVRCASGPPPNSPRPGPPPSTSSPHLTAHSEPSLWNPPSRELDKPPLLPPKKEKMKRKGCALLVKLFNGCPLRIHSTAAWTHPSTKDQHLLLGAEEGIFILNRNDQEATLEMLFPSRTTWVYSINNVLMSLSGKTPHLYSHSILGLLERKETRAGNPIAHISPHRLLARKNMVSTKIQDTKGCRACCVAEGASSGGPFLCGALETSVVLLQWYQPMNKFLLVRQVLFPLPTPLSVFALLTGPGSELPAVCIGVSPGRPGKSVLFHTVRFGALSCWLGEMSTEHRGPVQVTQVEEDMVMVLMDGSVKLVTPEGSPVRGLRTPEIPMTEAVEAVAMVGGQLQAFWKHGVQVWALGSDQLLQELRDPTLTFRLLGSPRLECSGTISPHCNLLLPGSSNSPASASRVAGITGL

SMILES | DC50 (HPK1 kinase [1]) [nM] | HPK1/GLK Fold (HPK1/GLK) | IC50 (HPK1 kinase [2]) [nM]
Cc1cc(-c2cnc3[nH]cc(-c4ccc(C(=O)N(C)C)cc4)c3n2)cc(C)c1C1=CCN(CC2CCN(c3ccc(NC4CCC(=O)NC4=O)cc3F)CC2)CC1 (centres unmarked) [compound 018] | < 10 | ++++ (1000≤Fold) | < 10
Cc1cc(-c2cnc3[nH]cc(-c4ccc(C(=O)N(C)C)cc4)c3n2)cc(C)c1C1=CCN(C2CN(c3ccc(C(=O)NC4CCC(=O)NC4=O)nc3)C2)CC1 (centres unmarked) [compound 012] | – | ++++ (1000≤Fold) | < 10
Cc1cc(N2CC(CN3CC=C(c4c(C)cc(-c5cnc6[nH]cc(-c7ccc8c(c7)CCN(C)C8=O)c6c5)cc4C)CC3)C2)ccc1N1CCC(=O)NC1=O [compound 099] | < 10 | ++++ (1000≤Fold) | < 10
COc1ccc(C(=O)N2CC(N3CC=C(c4c(C)cc(-c5cnc6[nH]cc(-c7ccc(C(=O)N(C)C)cc7)c6n5)cc4C)CC3)C2)cc1N1CCC(=O)NC1=O [compound 061] | – | ++++ (1000≤Fold) | < 10
Cc1cc(-c2cnc3[nH]cc(-c4cnc(C(F)(F)F)s4)c3n2)cc(C)c1C1=CCN(CC2CN(c3ccc(N4CCC(=O)NC4=O)c(F)c3)C2)CC1 [compound 165] | < 10 | ++++ (1000≤Fold) | < 10
Cc1cc(-c2c[nH]c3ncc(-c4cc(C)c(C5=CCN(CC6CN(c7ccc(N8CCC(=O)NC8=O)c(F)c7)C6)CC5)c(C)c4)nc23)ccc1C(=O)N(C)C [compound 146] | – | ++++ (1000≤Fold) | < 10
Cc1cc(-c2cnc3[nH]cc(-c4ccc(C(=O)N(C)CC(C)O)cc4)c3n2)cc(C)c1C1=CCN(CC2CN(c3ccc(N4CCC(=O)NC4=O)c(F)c3)C2)CC1 (centres unmarked) [compound 107] | – | ++++ (1000≤Fold) | < 10
Cc1cc(N2CCC(CN3CC=C(c4c(C)cc(-c5cnc6[nH]cc(-c7ccc(C(=O)N(C)C)cc7)c6n5)cc4C)CC3)CC2)ccc1N1CCC(=O)NC1=O [compound 113] | < 10 | ++++ (1000≤Fold) | < 10
COCCCN(C)C(=O)c1ccc(-c2c[nH]c3ncc(-c4cc(C)c(C5=CCN(CC6CN(c7ccc(N8CCC(=O)NC8=O)c(C)c7)C6)CC5)c(C)c4)cc23)cc1 [compound 109] | < 10 | ++++ (1000≤Fold) | < 10
Cc1cc(N2CC(CN3CC=C(c4ccc(-c5cnc6[nH]cc(-c7ccc(C(=O)N(C)C)cc7)c6c5)cc4C(C)C)CC3)C2)ccc1N1CCC(=O)NC1=O [compound 129] | < 10 | ++++ (1000≤Fold) | < 10
Cc1cc(-c2cnc3[nH]cc(-n4cc(CC(F)(F)F)cn4)c3n2)cc(C)c1C1=CCN(CC2CN(c3ccc(N4CCC(=O)NC4=O)c(F)c3)C2)CC1 [compound 162] | < 10 | ++++ (1000≤Fold) | < 10
Cc1cc(-c2cnc3[nH]cc(-c4ccc(C(=O)N(C)C)cc4)c3c2)cc(C)c1C1=CCN(CC2CN(C(=O)c3ccc(Cl)c(N4CCC(=O)NC4=O)c3)C2)CC1 [compound 130] | – | ++++ (1000≤Fold) | < 10
Cc1cc(-c2cnc3[nH]cc(-c4ccc(C(=O)N(C)C)cc4)c3n2)cc(C)c1C1=CCN(CC2CN(c3ccc(C(=O)NC4CCC(=O)NC4=O)cn3)C2)CC1 (centres unmarked) [compound 089] | – | ++++ (1000≤Fold) | < 10
Cc1cc(N2CC(CN3CC=C(c4ccc(-c5cnc6[nH]cc(-c7ccc(C(=O)N(C)C)cc7)c6n5)cc4CN(C)C)CC3)C2)ccc1N1CCC(=O)NC1=O [compound 139] | < 10 | – | < 10
Cc1cc(-c2cnc3[nH]cc(-n4cc(F)cn4)c3n2)cc(C)c1C1=CCN(CC2CN(c3ccc(N4CCC(=O)NC4=O)c(F)c3)C2)CC1 [compound 163] | < 10 | ++++ (1000≤Fold) | < 10
Cc1cc(-c2cnc3[nH]cc(-n4cc(C(F)F)cn4)c3n2)cc(C)c1C1=CCN(CC2CN(c3ccc(N4CCC(=O)NC4=O)c(F)c3)C2)CC1 [compound 159] | < 10 | – | < 10

SMILES | DC50 (HPK1 kinase [1]) [nM] | HPK1/GLK Fold (HPK1/GLK) | IC50 (HPK1 kinase [2]) [nM]
Cc1cc(-c2cnc3[nH]cc(-n4ncc5c4CCC5)c3n2)cc(C)c1C1=CCN(CC2CN(c3ccc(N4CCC(=O)NC4=O)c(F)c3)C2)CC1 [compound 164] | < 10 | – | < 10
Cc1cc(N2CC(CN3CC=C(c4c(C)cc(-c5cnc6[nH]cc(-c7ccc(C(=O)N(C)C)cc7F)c6n5)cc4C)CC3)C2)ccc1N1CCC(=O)NC1=O [compound 140] | < 10 | – | < 10
Cc1cc(-c2cnc3[nH]cc(-c4cn(CC(F)(F)F)nn4)c3n2)cc(C)c1C1=CCN(CC2CN(c3ccc(N4CCC(=O)NC4=O)c(F)c3)C2)CC1 [compound 148] | < 10 | – | < 10
Cc1cc(-c2cnc3[nH]cc(-c4ccc(C(=O)N(C)C)cc4)c3n2)cc(C)c1C1=CCN(C2CC3(C2)CN(c2ccc(N4CCC(=O)NC4=O)c(F)c2)C3)CC1 [compound 119] | < 10 | – | < 10
Cc1cc(-c2cnc3[nH]cc(-c4csc(CO)c4)c3n2)cc(C)c1C1=CCN(CC2CN(c3ccc(N4CCC(=O)NC4=O)c(F)c3)C2)CC1 [compound 151] | < 10 | – | < 10
Cc1cc(N2CC(C(C)N3CC=C(c4c(C)cc(-c5cnc6[nH]cc(-c7ccc(C(=O)N(C)C)cc7)c6n5)cc4C)CC3)C2)ccc1N1CCC(=O)NC1=O (centres unmarked) [compound 042] | – | ++++ (1000≤Fold) | < 10
Cc1cc(-c2cnc3[nH]cc(-n4cc(C5CC5)cn4)c3n2)cc(C)c1C1=CCN(CC2CN(c3ccc(N4CCC(=O)NC4=O)c(F)c3)C2)CC1 [compound 160] | < 10 | ++++ (1000≤Fold) | < 10
Cc1cc(-c2cnc3[nH]cc(-c4ccc(C(=O)N(C)C)cc4)c3n2)cc(C)c1C1=CCN(CC2CN(c3cc(F)c(N4CCC(=O)NC4=O)c(F)c3)C2)CC1 [compound 079] | – | ++++ (1000≤Fold) | < 10
Cc1nsc(-c2c[nH]c3ncc(-c4cc(C)c(C5=CCN(CC6CN(c7ccc(N8CCC(=O)NC8=O)c(F)c7)C6)CC5)c(C)c4)nc23)n1 [compound 171] | < 10 | – | < 10
Cc1cc(N2CC(CN3CC=C(c4c(C)cc(-c5cnc6[nH]cc(-c7ccc(C(=O)N(C)C)cc7)c6c5)cc4C)CC3)C2)ccc1N1CCC(=O)NC1=O [compound 013] | < 10 | – | < 10
Cc1cc(-c2cnc3[nH]cc(-n4cc(N5CCOCC5)cn4)c3n2)cc(C)c1C1=CCN(CC2CN(c3ccc(N4CCC(=O)NC4=O)c(F)c3)C2)CC1 [compound 157] | < 10 | – | < 10
Cc1cc(-c2cnc3[nH]cc(-c4cnc5cc(F)ccn45)c3n2)cc(C)c1C1=CCN(CC2CN(c3ccc(N4CCC(=O)NC4=O)c(F)c3)C2)CC1 [compound 167] | < 10 | ++++ (1000≤Fold) | < 10
Cc1cc(-c2cnc3[nH]cc(-c4cc(Cl)sc4Cl)c3n2)cc(C)c1C1=CCN(CC2CN(c3ccc(N4CCC(=O)NC4=O)c(F)c3)C2)CC1 [compound 149] | < 10 | – | < 10
Cc1cc(N2CC(CN3CC=C(c4c(C)cc(-c5cnc6[nH]cc(-c7cnc8ccn(C)c8c7)c6c5)cc4C)CC3)C2)ccc1N1CCC(=O)NC1=O [compound 111] | < 10 | – | < 10
CCc1nc(C)c(-c2c[nH]c3ncc(-c4cc(C)c(C5=CCN(CC6CN(c7ccc(N8CCC(=O)NC8=O)c(F)c7)C6)CC5)c(C)c4)nc23)s1 [compound 152] | < 10 | – | < 10
Cc1ccn2c(-c3c[nH]c4ncc(-c5cc(C)c(C6=CCN(CC7CN(c8ccc(N9CCC(=O)NC9=O)c(F)c8)C7)CC6)c(C)c5)nc34)cnc2c1 [compound 168] | < 10 | – | < 10
